Measurements: US5081131A, “Omega-((hetero)alkyl)benz(cd)-indol-2-amines” (American Cyanamid Company, priority 1988, dated 1992)
Counter-ions that a name gives are not always drawn.

How the values were obtained:
[1] = tested on: thevetin-induced arrhythmia in guinea pigs; experiment: Thevetin (cardiac glycoside)-induced arrhythmia in guinea pigs; assay type: in vivo, guinea pig; settings: for Time (Minutes) Before Induced Arrhythmia: saline 22.91±0.5 minutes
Protocol: Male guinea pigs, weighing 300-500 g each, from Summit View Farms, Belvidere, N.J., were anesthetized by intraperitoneal adminstration of urethan at 1500 mg/kg. The animals were then restrained in a supine position. Electrocardiogram leads were attached to the four limbs and Lead II of the electrocardiogram was monitored.
The neck region was exposed and the jugular vein was cannulated. The test compounds were dissolved in saline and administered intravenously at the indicated doses, via a cannula which was then flushed with saline. Five minutes after the test compound was administered, thevetin dissolved in saline was administered by infusion through a cannula at a dose of 0.1 mg/kg/minute in a volume of 0.1 ml. The time until the P wave of the electrocardiogram disappeared was determined.

[2] = tested on: spontaneously hypertensive rats; experiment: Hypotensive activity in spontaneously hypertensive rats (MABP); assay type: in vivo, rat (Okamoto strain); settings: SHR, gavage, two doses of 10 mg/kg or less 24 h apart, MABP at 28 h; average baseline 160±1.5 mm Hg
Protocol: The novel compounds of the present invention are active hypotensive agents and were tested for hypotensive activity by the method of P. S. Chan and D. Poorvin, Clinical and Experimental Hypertension, 1 (6), 817-830 (1979). Male, 16 week old, spontaneously hypertensive rats of the Okamoto strain, from Taconic Farms, Germantown, N.Y., having an average mean arterial blood pressure of 160±1.5 mm of mercury, were used in the test. One to 4 rats were used per test compound. A rat was dosed by gavage with a test compound, suspended in 2% pre-boiled starch at a concentration of 50 mg/ml, at a doses of 10 mg/kg of body weight or less, with 0.9% sodium chloride loading at a dose of 25 ml/kg of body weight. A second identical dose of the test compound, without sodium chloride loading was given 24 hours later. At 28 hours after initial dose the mean arterial blood pressure (MABP) was measured. The procedure was repeated in a second and third rat when necessary.

[3] = target: T1, thromboxane synthetase enzyme (Rattus norvegicus, UniProt P49430); experiment: Thromboxane synthetase enzyme inhibition (TXB2 formation in washed platelets, RIA); assay type: cell-based, spontaneously hypertensive rat; settings: 1×10^-4 Molar, SHR platelets, 10 min at 37° C.; for inhibition at 100 µM: read-out: % Inhibition (Thromboxane Synthetase Enzyme Inhibition)
T1 construct: endogenous in cells; host or cells: washed platelets from arterial blood of male Okamoto-Aoki spontaneously hypertensive rats (animals from Taconic Farms, Germantown, N.Y.)
T1 sequence (P49430 1-533): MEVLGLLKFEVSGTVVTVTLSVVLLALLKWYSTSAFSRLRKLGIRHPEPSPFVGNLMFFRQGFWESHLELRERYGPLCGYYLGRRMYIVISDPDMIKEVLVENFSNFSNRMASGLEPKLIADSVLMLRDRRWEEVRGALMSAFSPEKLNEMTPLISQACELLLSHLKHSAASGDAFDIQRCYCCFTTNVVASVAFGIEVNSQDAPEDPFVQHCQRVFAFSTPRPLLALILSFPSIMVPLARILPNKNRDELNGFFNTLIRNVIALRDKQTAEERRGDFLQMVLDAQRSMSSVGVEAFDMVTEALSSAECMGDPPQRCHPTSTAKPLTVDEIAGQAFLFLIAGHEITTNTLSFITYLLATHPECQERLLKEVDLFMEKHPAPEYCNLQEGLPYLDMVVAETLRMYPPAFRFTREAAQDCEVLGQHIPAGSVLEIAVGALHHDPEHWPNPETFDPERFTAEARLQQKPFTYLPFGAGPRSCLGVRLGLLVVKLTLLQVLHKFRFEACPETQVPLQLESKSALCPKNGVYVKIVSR
Protocol: The blood was diluted with 3 ml cold saline and centrifuged at room temperature for 15 min at 468×g. The platelet rich plasma (PRP) was separated. The platelets were isolated by certrifuging the PRP for 10 minutes at 1060×g and washed in 4 ml cold oxygenated Krebs phosphate buffer, pH 7.4. The chilled platelets recovered from centrifuging at 800×g for 10 minutes were resuspended in oxygenated Krebs phosphate buffer and diluted to contain 4.0-6.0×10^4 platelets/micro-liters. The inhibition of TX formation was studied by determining the concentration of thromboxane B2 (TXB2), the stable hydrolysis product of TXA2. Assay samples prepared on ice, contained 200 micro-liters platelet suspension, 50 micro-liters saline, and 50 micro-liters […] (saline) or drug under study. The test drug (0.003 mole) was dissolved in 5 ml of saline. […] The assay samples were incubated for 10 minutes at 37° C. in a metabolic shaker at about 60 rpm. The reaction was terminated by immersing the tubes in an ice bath and adding 50 micro-liters of 0.5M citric acid. The samples were centrifuged for 10 minutes at 2000 rpm at 4° C., and the supernatants were decanted.

[4] = intravenous doses as high as 20 mg/kg

| inhibition at 100 µM [3] | SMILES | Avg. MABP in mm Hg (No. of Rats) [2] | also measured |
| --- | --- | --- | --- |
| 100% | CC(CCNC1=Nc2ccc(Br)c3cccc1c23)n1ccnc1 (centres unmarked) [6-Bromo-N-(3-(1H-imidazol-1-yl)butyl)benz(cd)indol-2-amine] | 120 mm Hg | Time (Minutes) Before Induced Arrhythmia ([1]; IV dose 30 mg/kg): 34.7 min |
| – | O=C(O)/C=C/C(=O)O.c1cc2c3c(cccc3c1)C(NCCCCn1ccnc1)=N2 [N-(4-(1H-imidazol-1-yl)butyl)benz(cd)indol-2-amine, fumarate] | 106 mm Hg | Time (Minutes) Before Induced Arrhythmia ([1]; IV dose 10 mg/kg): 31 min; % Inhibition (Thromboxane Synthetase Enzyme Inhibition) [3]: 100% |
| 99% | c1cncc(CCNC2=Nc3cccc4cccc2c34)c1 [N-(2-(3-Pyridinyl)ethyl)benz(cd)indol-2-amine sesqui-fumarate] | 126 mm Hg | Time (Minutes) Before Induced Arrhythmia ([1]; IV dose 20 mg/kg): 37 min |
| 97% | Brc1ccc2c3c(cccc13)C(NCCCCCn1ccnc1)=N2 [6-Bromo-N-(5-(1H-imidazol-1-yl)pentyl)benz(cd)indol-2-amine] | 118 mm Hg | Time (Minutes) Before Induced Arrhythmia ([1]; IV dose 20 mg/kg): 37 min |
| – | Cl.Cl.c1cc2c3c(cccc3c1)C(NCCCn1ccnc1)=N2 [N-(3-(1H-imidazol-1-yl)propyl)benz(cd)indol-2-amine, dihydrochloride] | 87 mm Hg | Time (Minutes) Before Induced Arrhythmia ([1]; IV dose 10 mg/kg): 48.5 min; % Inhibition (Thromboxane Synthetase Enzyme Inhibition) [3]: 85% |
| 100% | C(=C\Cn1ccnc1)/CNC1=Nc2cccc3cccc1c23 [(E)-N-(4-(1H-imidazol-1-yl)-2-butenyl)benz(cd)indol-2-amine, hydriodide] | – | Time (Minutes) Before Induced Arrhythmia ([1]; IV dose 10 mg/kg): 34.3 min |
| – | CC(C)NC[C@H](O)COc1cccc2ccccc12 (racemic) [Propanolol, reference compound] | – | activity in thevetin-induced arrhythmia test ([1]; intravenous dose of 2 mg/kg): active; time protected before arrhythmia occurred ([1]; intravenous dose of 2 mg/kg): 47.0 ± 4.1 min |
| – | CC(CCNC1=Nc2c(Cl)cc(Cl)c3cccc1c23)n1ccnc1 (centres unmarked) [6,8-Dichloro-N-(3-(1H-imidazol-1-yl)butyl)benz(cd)indol-2-amine] | 102 mm Hg | Time (Minutes) Before Induced Arrhythmia ([1]; IV dose 20 mg/kg): 32 min |
| 100% | O=C(CNC1=Nc2cccc3cccc1c23)NCCCn1ccnc1 [2-(Benz(cd)indol-2-ylamino)-N-(3-(1H-imidazol-1-yl)propyl)acetamide] | – | Time (Minutes) Before Induced Arrhythmia ([1]; IV dose 25 mg/kg): 33 min |
| 99% | CC(CCNC1=Nc2ccc(S(=O)(=O)N(C)C)c3cccc1c23)n1ccnc1 (centres unmarked) [N,N-Dimethyl-2-((3-(1H-imidazol-1-yl)butyl)amino)benz(cd)indol-6-sulfonamide] | – | Time (Minutes) Before Induced Arrhythmia ([1]; IV dose 10 mg/kg): 33.6 min |
| 75% | c1ccc(C(CNC2=Nc3cccc4cccc2c34)(Cn2ccnc2)c2ccccc2)cc1 [N-(3-(1H-imidazol-1-yl)-2,2-diphenylpropyl)benz(cd)indol-2-amine] | 127 mm Hg | Time (Minutes) Before Induced Arrhythmia ([1]; IV dose 10 mg/kg): 41 min |
| – | O=C(O)c1ccc(OCCn2ccnc2)cc1 [Dazoxiben hydrochloride, 4-(2-(1H-imidazol-l-yl)ethoxy)benzoic acid, monohydrochloride, reference compound] | – | activity in thevetin-induced arrhythmia test [1, 4]: inactive; time before arrhythmia occurred [1, 4]: 22.2 ± 1.9 min |
| 100% | CN(C)S(=O)(=O)c1ccc2c3c(cccc13)C(NCCCn1ccnc1)=N2 [N,N-Dimethyl-2-((3-(1H-imidazol-1-yl)propyl)amino)benz(cd)indol-6-sulfonamide] | – | Time (Minutes) Before Induced Arrhythmia ([1]; IV dose 20 mg/kg): 33.4 min |
| – | O=C(O)/C=C/C(=O)O.c1cc2c3c(cccc3c1)C(NCCCn1cnc3ccccc31)=N2 [N-(3-(1H-benzimidazol-1-yl)propyl)benz(cd)indol-2-amine, fumarate] | 123 mm Hg | % Inhibition (Thromboxane Synthetase Enzyme Inhibition) [3]: 90% |
| 79% | Cc1ccc(S(=O)(=O)Nc2ccc3c4c(cccc24)C(NCCCCn2ccnc2)=N3)cc1 [monoacetate] | 125 mm Hg | – |
| 92% | Brc1ccc2c3c(cccc13)C(NCCCCc1cccnc1)=N2 [6-Bromo-N-(4-(3-pyridinyl)butyl)benz(cd)indol-2-amine sesqui-fumarate] | 110 mm Hg | – |
| 95% | CC(CNC1=Nc2cccc3cccc1c23)Cn1ccnc1.Cl.Cl (centres unmarked) [N-(3-(1H-imidazol-1-yl)-2-methylpropyl)benz(cd)indol-2-amine, dihydrochloride] | 113 mm Hg | – |
| – | Brc1ccc2c3c(cccc13)C(NCCCCc1cccnc1)=N2.Cl.Cl [6-Bromo-N-(4-(3-pyridinyl)butyl)benz(cd)indol-2-amine, dihydrochloride] | 99 mm Hg | % Inhibition (Thromboxane Synthetase Enzyme Inhibition) [3]: 89% |
| 93% | COc1ccccc1C(=O)N(CCCCn1ccnc1)C1=Nc2cccc3cccc1c23 [N-Benz(cd)indol-2-yl-N-(4-(1H-imidazol-1-yl)butyl)-2-methoxybenzamide] | 76 mm Hg | – |
| 85% | Brc1ccc2c3c(cccc13)C(NCCCn1ccnc1)=N2 [6-Bromo-N-(3-(1H-imidazol-l-yl)propyl)benz(cd)indol-2-amine, dihydrochloride] | 117 mm Hg | – |
| – | CC(=Cc1ccc(Cc2cccnc2)cc1)C(=O)O [OKY-1581, 2-methyl-3-(4-(3-pyridinylmethyl)phenyl-2-propenoic acid, sodium salt, reference compound] | – | activity in thevetin-induced arrhythmia test [1, 4]: inactive; time before arrhythmia occurred [1, 4]: 24.3 ± 2.2 min |
| – | Clc1cc(Cl)c2cccc3c2c1N=C3NCCCCCn1ccnc1 [6,8-Dichloro-N-(5-(1H-imidazol-1-yl)pentyl)benz(cd)indol-2-amine] | 119 mm Hg | Time (Minutes) Before Induced Arrhythmia ([1]; IV dose 20 mg/kg): 33.4 min |
| – | CC(CNC1=Nc2cccc3cccc1c23)Cn1ccnc1.O=C(O)/C=C/C(=O)O (centres unmarked) [N-(3-(1H-imidazol-1-yl)-2-methylpropyl)benz(cd)indol-2-amine, fumarate] | – | Time (Minutes) Before Induced Arrhythmia ([1]; IV dose 20 mg/kg): 34.5 min; % Inhibition (Thromboxane Synthetase Enzyme Inhibition) [3]: 100% |

| SMILES | inhibition at 100 µM [3] | Avg. MABP in mm Hg (No. of Rats) [2] | also measured |
| --- | --- | --- | --- |
| Clc1ccc2c3c(cccc13)C(NCCCCn1ccnc1)=N2.O=C(O)/C=C/C(=O)O [6-Chloro-N-(4-(1H-imidazol-1-yl)butyl)benz(cd)indol-2-amine, fumarate] | 100% | 115 mm Hg | Time (Minutes) Before Induced Arrhythmia ([1]; IV dose 10 mg/kg): 31.5 min |
| O=C(O)/C=C/C(=O)O.c1ccc(C(CCn2ccnc2)NC2=Nc3cccc4cccc2c34)cc1 (centres unmarked) [N-(3-(1H-imidazol-1-yl)-1-phenylpropyl)benz(cd)indol-2-amine, fumarate] | 100% | – | Time (Minutes) Before Induced Arrhythmia ([1]; IV dose 30 mg/kg): 34 min |
| O=C(O)/C=C/C(=O)O.c1ccc(CCNC2=Nc3cccc4cccc2c34)nc1 [N-(2-(2-Pyridinyl)ethyl)benz(cd)indol-2-amine, fumarate] | 94% | 137 mm Hg | – |
